{"source": "patent US8702939B2", "about": "“Electrotaxis methods and devices” (McMaster University, priority 2010, dated 2014)", "type_in_all_cases": "in vivo, Caenorhabditis elegans", "key": {"C. elegans [1]": {"system": "C. elegans", "experiment": "channel-based drug-screening assay: acetaminophen pre-treatment against neurotoxins (electrotaxis)", "protocol": "(§1) The toxins 6-OHDA (catalog no. 162957), Rotenone (catalog no. R8875) and Acetaminophen (catalog no. A7085) were obtained from Sigma Aldrich. MPTP (M325913) was from Toronto Research Chemicals. Desired concentrations of 6-OHDA (100 μM), MPTP (700 μM) and Rotenone (25 μM) were prepared in M9 one day before the assay and stored at −20° C. 6-OHDA solution is sensitive to light and therefore it was kept in the dark. A stock solution of Acetaminophen (10 mM) was prepared and stored at −20° C. At the time of toxin assay, the stock solution was diluted to 100 μM final concentration.\n(§2) Experimental design was as described Rezai et al., ibid. Electric field was fixed at 3V/cm. Then, the direction of the electric field was changed and the worm was allowed to move the same distance in the opposite direction. The movement of each worm was recorded using a Nikon Coolpix P5100, NY, USA. The captured videos were analyzed using the ImageJ NIH image module. Three parameters—U-turn, head movement and speed—were used to characterize the behaviour of animals. For U-turn, the time (in seconds) that was taken by a moving worm to come to a stop and turn to the opposite direction after the electric field direction was reversed was recorded. Most wild type worms (˜90%, see results) were able to change direction in less than 10 seconds. Worms taking 10 sec or longer were considered to have an abnormal response. For the head movement analysis, the number of full sine waves (i.e., spanning up to three-fourth of the channel width) that a worm makes within a 30 sec. duration were determined. Wild-type worms make full sine waves in majority of cases with failures typically being less than 25%. Therefore, a threshold of 25% to place a worm in normal or abnormal category was used. […] To analyze speed, the time taken by a worm to move a distance of 5000 μm in a given direction was used. Speed was measured in both directions of movement and the average value was used as a true response. Wild type animals typically moved with a speed of 215 μm/sec and above. Therefore, animals moving slower than 215 μm/sec were considered to have an abnormal response.\nIn order to establish a baseline to screen for neuroprotective compounds in a channel-based assay, the neuroprotective effect of acetaminophen (a known analgesic) against neurodegeneration caused by toxinsas tested.\nPre-treatment of worms with acetaminophen (100 uM, 24 hrs exposure during L1 stage) prior to treatment with 6-0H DA as above, conferred a significant protection on the worms as evidenced by the electrotactic response of worms using all 3 movement parameters described above. The protection ranged from 30% to 50% (FIG. 34). […] The defect in head movement was decreased by 40% and U-turn by 30%. The impact of Acetaminophen on Rotenone-induced neuronal toxicity and provide first evidence that Acetaminophen protects DA neurons from the toxic effects of Rotenone. While the head movement defect was decreased by 20%, abnormalities in U-turn response and speed were lower by 50% and 38%, respectively."}, "C. elegans [2]": {"system": "C. elegans", "experiment": "microfluidic electrotaxis assay of toxin/drug-exposed worms (U-turn, head movement, speed)", "details": "for movement speed response of toxin-treated animals: abnormal = slower than 215 μm/sec, 3V/cm", "protocol": "as §1, with “Desired concentrations of 6-OHDA (100 μM), MPTP (700 μM) and Rotenone (25 μM) were prepared in M9 one day before the assay and stored at −20° C.” left out\n(§3) All assays with toxins were done using L1 stage worms. Synchronized L1 worms were exposed to toxin solutions for different time periods with mild shaking on a rotating platform. At the end of the time period, tubes were briefly centrifuged to remove drug solution and worm pellets were diluted with […] and were plated on normal NG agar plates.\nas §2"}, "C. elegans [3]": {"system": "C. elegans", "details": "for movement defects on plate: lowered concentration and exposure time, slow reaction when touched on head or tail", "protocol": "as §3\nThese phenotypes are in agreement with published studies."}, "DA neurons": {"system": "DA neurons", "experiment": "toxin-induced degeneration of DA neurons in dat-1p::yfp transgenic animals", "excerpt": "In some cases, the entire dendritic processes were missing."}}, "data": [{"molecule": "CC(=O)Nc1ccc(O)cc1", "note": "[acetaminophen]", "values": [{"measurement": "decrease of U-turn defect", "setting": "C. elegans [1]; MPTP", "result": 30, "unit": "%"}, {"measurement": "decrease of head movement defect", "setting": "C. elegans [1]; MPTP", "result": 40, "unit": "%"}, {"measurement": "decrease of abnormalities in U-turn response", "setting": "C. elegans [1]; Rotenone", "result": 50, "unit": "%"}, {"measurement": "decrease of abnormalities in speed", "setting": "C. elegans [1]; Rotenone", "result": 38, "unit": "%"}, {"measurement": "decrease of head movement defect", "setting": "C. elegans [1]; Rotenone", "result": 20, "unit": "%"}]}, {"molecule": "C=C(C)[C@H]1Cc2c(ccc3c2O[C@@H]2COc4cc(OC)c(OC)cc4[C@@H]2C3=O)O1", "note": "[Rotenone]", "values": [{"measurement": "electrotactic movement", "setting": "C. elegans [2]; 25 μM Rotenone for 1-8 hr", "result": "abnormal electrotactic movement"}, {"measurement": "defect in the speed of animals", "setting": "C. elegans [2]; Rotenone exposure", "result": 48, "unit": "%"}, {"measurement": "abnormal head movement response, proportion of worms", "setting": "C. elegans [2]; Rotenone, after 8 hrs of toxin exposure", "result": "up to 30%"}, {"measurement": "appearance on the plate", "setting": "C. elegans [3]; 25 μM Rotenone for 1-8 hr", "result": "largely healthy"}, {"measurement": "morphology of exposed worms", "setting": "C. elegans [3]; 25 μM rotenone for less than 12 hrs", "result": "morphological defects similar to MPTP"}, {"measurement": "movement defects on plate", "setting": "C. elegans [3]", "result": "only subtle and low penetrant movement defects"}]}, {"molecule": "c1ccc([C@H]2CN3CCSC3=N2)cc1", "note": "[levamisole]", "values": [{"measurement": "movement response in microfluidic channel", "setting": "C. elegans [2]; 10 μM levamisole, only 5 worms tested", "result": "reduced movement"}]}, {"molecule": "NCCc1cc(O)c(O)cc1O", "note": "[6-OHDA, 6-hydroxydopamine]", "values": [{"measurement": "degeneration of DA neurons", "setting": "DA neurons; 6-OHDA 100 μM for 4 hours", "result": "did not cause an obvious degeneration of DA neurons"}, {"measurement": "animals with DA neuron (CEP dendritic process) defects", "setting": "DA neurons; 6-OHDA 100 μM, longer exposure ~71 hrs", "result": 15, "unit": "%"}, {"measurement": "electrotactic response in channel", "setting": "C. elegans [2]; 100 μM 6-OHDA for as little as 30 min", "result": "abnormal electrotactic response"}, {"measurement": "electrotactic response in channel", "setting": "C. elegans [2]; 5 mM 6-OHDA treated L1 animals", "result": "practically immobile and unresponsive to the electric field stimulus"}, {"measurement": "U-turn defect, proportion of worms", "setting": "C. elegans [2]; 6-OHDA 100 μM, within 4 hour exposure of L1 worms, electric field 3V/cm, abnormal = 10 sec or longer", "result": "30-80%"}, {"measurement": "defective head movement response, proportion of worms", "setting": "C. elegans [2]; 6-OHDA, 30 minutes toxin exposure", "result": "about one-third"}, {"measurement": "defective head movement response, proportion of animals", "setting": "C. elegans [2]; 6-OHDA, 1 hr exposure", "result": 50, "unit": "%"}, {"measurement": "defective head movement response, proportion of worms", "setting": "C. elegans [2]; 6-OHDA, 4 hour exposure", "result": 61, "unit": "%"}, {"measurement": "movement speed response of toxin-treated animals", "setting": "C. elegans [2]", "result": "most defective response compared to the other 2 toxins"}, {"measurement": "phenotype of treated L1 animals", "setting": "C. elegans [3]; 5 mM 6-OHDA", "result": "extreme sluggishness, uncoordinated movement, protruding vulva, growth arrest and early larval lethality"}, {"measurement": "weak uncoordinated phenotype, proportion of worms (plate)", "setting": "C. elegans [3]; 6-OHDA, 30 min exposure", "result": "one-quarter"}, {"measurement": "morphological defects on plate", "setting": "C. elegans [3]; 6-OHDA, 4 hr exposure", "result": "morphological defects such as protruding vulva (Pvl)"}, {"measurement": "uncoordinated phenotype, proportion of animals (plate)", "setting": "C. elegans [3]; 6-OHDA, 4 hr exposure", "result": 86, "unit": "%"}]}, {"molecule": "CN1CC=C(c2ccccc2)CC1", "note": "[MPTP, 1-methyl 4-phenyl 1,2,3,6-tetrahydropyridine]", "values": [{"measurement": "electrotactic response in channel", "setting": "C. elegans [2]; 700 μM MPTP for up to 8 hrs", "result": "obvious defects in the channel assay"}, {"measurement": "head movement defects, proportion of worms", "setting": "C. elegans [2]; MPTP, 4 hr exposure", "result": 80, "unit": "%"}, {"measurement": "movement speed response of toxin-treated animals", "setting": "C. elegans [2]", "result": "wild type response in all 3 conditions tested"}, {"measurement": "appearance on NG agar plates", "setting": "C. elegans [3]; 700 μM MPTP for up to 8 hrs", "result": "fairly active and healthy"}, {"measurement": "phenotype of treated L1 worms", "setting": "C. elegans [3]; 1.4 mM MPTP for 3 days", "result": "almost completely uncoordinated and paralyzed"}, {"measurement": "movement defects on plate", "setting": "C. elegans [3]", "result": "only subtle and low penetrant movement defects"}]}]}
